Test: Extraction of amino acid ester from aqueous mineral acid salt solution into 1,2-dichloroethane at constant pH (Table 1)
Method: 0.1 mole of a mineral acid salt of an amino acid ester, shown in Table 1 was dissolved or suspended in 30 g of water. Thereto was added 60 g of 1,2-dichloroethane. While the mixture was kept at 20°-25° C. and stirred, a 20% water solution of sodium hydroxide was dropwise added thereto in 0.5 hour, and then stirring and extraction were carried out for 0.5 hour while the pH of the aqueous layer was kept at a constant level in the range of 6.5-8.5. The organic layer was separated from the aqueous layer. Then, there were measured percent extraction of fed amino acid ester in organic layer, percent remaining of said ester in aqueous layer, and percent hydrolysis of said ester in aqueous layer (the hydrolyzed ester remains in the aqueous layer as an amino acid).

[1] = pH 6.5, 20-25 °C, 1,2-dichloroethane
[2] = pH 7.5, 20-25 °C, 1,2-dichloroethane
[3] = pH 8.5, 20-25 °C, 1,2-dichloroethane

With Cl.N[C@@H](Cc1ccccc1)C(=O)OCc1ccccc1 [Benzyl L-phenylalaninate hydrochloride] the “Ester in aqueous layer, percent hydrolysis” value (shortened to “Ester … percent hydrolysis”) [1] was 0%, the “Ester in aqueous layer, percent remaining” value (“Ester … percent remaining” below) [1] was 6% and the “Percent extraction of ester in organic layer” value (“Percent extraction of ester” below) [1] was 94%. For the same compound, the “Ester … percent hydrolysis” value [2] was 0%, the “Ester … percent remaining” value [2] was 1% and the “Percent extraction of ester” value [2] was 99%. The “Ester … percent remaining” value [3] was 1% and the “Percent extraction of ester” value [3] was 97%.
In the case of CCOC(=O)[C@@H](N)Cc1ccccc1.Cl [Ethyl L-phenylalaninate hydrochloride], the “Ester … percent hydrolysis” value [1] was 0%, the “Ester … percent remaining” value [1] was 8% and the “Percent extraction of ester” value [1] was 92%. For the same compound, the “Ester … percent hydrolysis” value [2] was 0%, the “Ester … percent remaining” value [2] was 2% and the “Percent extraction of ester” value [2] was 98%. The “Ester … percent hydrolysis” value [3] was 3%, the “Ester … percent remaining” value [3] was 1% and the “Percent extraction of ester” value [3] was 96%.
With CCOC(=O)c1ccccc1N.Cl [Ethyl o-aminobenzoate hydrochloride] the “Ester … percent hydrolysis” value [1] was 0%, the “Ester … percent remaining” value [1] was 6% and the “Percent extraction of ester” value [1] was 94%. For the same compound, the “Ester … percent hydrolysis” value [2] was 1%, the “Ester … percent remaining” value [2] was 2% and the “Percent extraction of ester” value [2] was 97%. The “Ester … percent hydrolysis” value [3] was 3%, the “Ester … percent remaining” value [3] was 1% and the “Percent extraction of ester” value [3] was 96%.
With COC(=O)[C@@H](N)CCCCN.Cl [Methyl L-lysinate hydrochloride] the “Ester … percent hydrolysis” value [1] was 0%, the “Ester … percent remaining” value [1] was 18% and the “Percent extraction of ester” value [1] was 82%. For the same compound, the “Ester … percent hydrolysis” value [2] was 0%, the “Ester … percent remaining” value [2] was 9% and the “Percent extraction of ester” value [2] was 91%. For the same compound, the “Ester … percent hydrolysis” value [3] was 3%, the “Ester … percent remaining” value [3] was 3% and the “Percent extraction of ester” value [3] was 94%.
With COC(=O)[C@@H](N)CO.Cl [Methyl L-serinate hydrochloride] the “Ester … percent hydrolysis” value [1] was 0%, the “Ester … percent remaining” value [1] was 14% and the “Percent extraction of ester” value [1] was 86%. For the same compound, the “Ester … percent hydrolysis” value [2] was 0%, the “Ester … percent remaining” value [2] was 5% and the “Percent extraction of ester” value [2] was 95%. The “Ester … percent hydrolysis” value [3] was 4%, the “Ester … percent remaining” value [3] was 2% and the “Percent extraction of ester” value [3] was 94%.
In the case of COC(=O)CCCN.Cl [Methyl γ-aminobutyrate hydrochloride], the “Ester … percent hydrolysis” value [1] was 0%, the “Ester … percent remaining” value [1] was 11% and the “Percent extraction of ester” value [1] was 89%. For the same compound, the “Ester … percent hydrolysis” value [2] was 0%, the “Ester … percent remaining” value [2] was 4% and the “Percent extraction of ester” value [2] was 96%. The “Ester … percent hydrolysis” value [3] was 3%, the “Ester … percent remaining” value [3] was 2% and the “Percent extraction of ester” value [3] was 95%.
In the case of Cl.N[C@@H](Cc1ccccc1)C(=O)Oc1ccccc1 [Phenyl L-phenylalaninate hydrochloride], the “Ester … percent hydrolysis” value [1] was 0%, the “Ester … percent remaining” value [1] was 6% and the “Percent extraction of ester” value [1] was 94%. For the same compound, the “Ester … percent hydrolysis” value [2] was 2%, the “Ester … percent remaining” value [2] was 1% and the “Percent extraction of ester” value [2] was 97%. The “Ester … percent hydrolysis” value [3] was 7%, the “Ester … percent remaining” value [3] was 1% and the “Percent extraction of ester” value [3] was 92%.
With Methyl L-aspartate hydrochloride the “Ester … percent remaining” value (pH 6.5) was 12%, the “Percent extraction of ester” value [1] was 88% and the “Ester … percent remaining” value (pH 7.5) was 3%. The “Percent extraction of ester” value [2] was 96%, the “Ester … percent remaining” value (pH 8.5) was 1% and the “Percent extraction of ester” value [3] was 96%. The “Ester … percent hydrolysis” value (water/1,2-dichloroethane, pH 6.5) was 0%, the “Ester … percent hydrolysis” value (water/1,2-dichloroethane, pH 7.5) was 1% and the “Ester … percent hydrolysis” value (water/1,2-dichloroethane, pH 8.5) was 3%.

— patent US5374765A, “Method for extracting an amino acid ester from a hydrous solution of a mineral acid salt thereof” (priority 1990, dated 1994)
